Experimental data taken from PubChem BioAssay AID2060331 (Molecular Pharmacology Branch, DTP, NCI, 2025).

Tested on: Hs578T multi-cell spheroids, viability
Test: Anticancer human tumor Hs578T cell line growth inhibition [IpAb];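 further: drug exposure lasted 7 days before readout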
Details: for IC50: curve of first compound; for viability, T/C: stronger effect = lower value
Method in brief: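 Multi-cell spheroids of 60% tumour cells, 25% HUVEC and 15% MSC in ultra-low-attachment U-bottom wells, treated with agents combined with ipatasertib or abemaciclib. Half-log ranges top out near clinical Cmax, or 10 microM when Cmax is unknown.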

For `CC(C)(C)c1cnc(CSc2cnc(NC(=O)C3CCNCC3)s2)o1` + CCN1CCN(Cc2ccc(Nc3ncc(F)c(-c4cc(F)c5nc(C)n(C(C)C)c5c4)n3)nc2)CC1, the IC50 (second compound 0.01 µM) was 181 nM, the IC50 (second compound 0.0316 µM) was 181 nM and the IC50 (second compound 0.1 µM) was 167 nM. It also gave an IC50 (second compound 0.316 µM) of 169 nM, an IC50 (second compound 1 µM) of 115 nM and a viability, T/C (second compound 0.01 µM, first compound 0.00949 µM) of 101%. For the same compound, the viability, T/C (second compound 0.01 µM, first compound 0.03 µM) was 114%, the viability, T/C (second compound 0.01 µM, first compound 0.0949 µM) was 114% and the viability, T/C (second compound 0.01 µM, first compound 0.3 µM) was 3.69%. The viability, T/C (second compound 0.01 µM, first compound 0.949 µM) was 3.37%, the viability, T/C (second compound 0.01 µM, first compound 3 µM) was 3.55% and the viability, T/C (second compound 0.0316 µM, first compound 0.00949 µM) was 99%. It also gave a viability, T/C (second compound 0.0316 µM, first compound 0.03 µM) of 113%, a viability, T/C (second compound 0.0316 µM, first compound 0.0949 µM) of 118% and a viability, T/C (second compound 0.0316 µM, first compound 0.3 µM) of 2.94%. For the same compound, the viability, T/C (second compound 0.0316 µM, first compound 0.949 µM) was 2.55%, the viability, T/C (second compound 0.0316 µM, first compound 3 µM) was 2.82% and the viability, T/C (second compound 0.1 µM, first compound 0.00949 µM) was 100%. It also gave a viability, T/C (second compound 0.1 µM, first compound 0.03 µM) of 99.9%, a viability, T/C (second compound 0.1 µM, first compound 0.0949 µM) of 95.3% and a viability, T/C (second compound 0.1 µM, first compound 0.3 µM) of 2.53%. The viability, T/C (second compound 0.1 µM, first compound 0.949 µM) was 2.48%, the viability, T/C (second compound 0.1 µM, first compound 3 µM) was 3.11% and the viability, T/C (second compound 0.316 µM, first compound 0.00949 µM) was 104%. For the same compound, the viability, T/C (second compound 0.316 µM, first compound 0.03 µM) was 104%, the viability, T/C (second compound 0.316 µM, first compound 0.0949 µM) was 97.2% and the viability, T/C (second compound 0.316 µM, first compound 0.3 µM) was 2.46%. The viability, T/C (second compound 0.316 µM, first compound 0.949 µM) was 3.54%, the viability, T/C (second compound 0.316 µM, first compound 3 µM) was 3.59% and the viability, T/C (second compound 1 µM, first compound 0.00949 µM) was 109%. It also gave a viability, T/C (second compound 1 µM, first compound 0.03 µM) of 107%, a viability, T/C (second compound 1 µM, first compound 0.0949 µM) of 59.6% and a viability, T/C (second compound 1 µM, first compound 0.3 µM) of 2.32%. For the same compound, the viability, T/C (second compound 1 µM, first compound 0.949 µM) was 2.79% and the viability, T/C (second compound 1 µM, first compound 3 µM) was 4.16%.
In the case of `Cn1ncc(Cl)c1-c1cc(C(=O)NC(CN)Cc2cccc(F)c2)sc1Cl` (stereo not given) + CC(C)NCC(C(=O)N1CCN(c2ncnc3c2C(C)CC3O)CC1)c1ccc(Cl)cc1, the IC50 (second compound 0.1 µM) is reported as 1680 nM, the IC50 (second compound 0.316 µM) is reported as 2070 nM and the IC50 (second compound 1 µM) is reported as 1110 nM. The IC50 (second compound 3.16 µM) was 951 nM, the IC50 (second compound 10 µM) was 31.6 nM and the viability, T/C (second compound 0.1 µM, first compound 0.0316 µM) was 90.9%. For the same compound, the viability, T/C (second compound 0.1 µM, first compound 0.1 µM) was 83.2%, the viability, T/C (second compound 0.1 µM, first compound 0.316 µM) was 70% and the viability, T/C (second compound 0.1 µM, first compound 1 µM) was 56.5%. It also gave a viability, T/C (second compound 0.1 µM, first compound 3.16 µM) of 44.5%, a viability, T/C (second compound 0.1 µM, first compound 10 µM) of 0.16% and a viability, T/C (second compound 0.316 µM, first compound 0.0316 µM) of 51.9%. It also gave a viability, T/C (second compound 0.316 µM, first compound 0.1 µM) of 73.5%, a viability, T/C (second compound 0.316 µM, first compound 0.316 µM) of 67.1% and a viability, T/C (second compound 0.316 µM, first compound 1 µM) of 54.5%. The viability, T/C (second compound 0.316 µM, first compound 3.16 µM) was 45.9%, the viability, T/C (second compound 0.316 µM, first compound 10 µM) was 0.16% and the viability, T/C (second compound 1 µM, first compound 0.0316 µM) was 67.3%. The viability, T/C (second compound 1 µM, first compound 0.1 µM) was 62.1%, the viability, T/C (second compound 1 µM, first compound 0.316 µM) was 50.1% and the viability, T/C (second compound 1 µM, first compound 1 µM) was 51.6%. The viability, T/C (second compound 1 µM, first compound 3.16 µM) was 39.4%, the viability, T/C (second compound 1 µM, first compound 10 µM) was 0.15% and the viability, T/C (second compound 3.16 µM, first compound 0.0316 µM) was 53.2%. For the same compound, the viability, T/C (second compound 3.16 µM, first compound 0.1 µM) was 53.7%, the viability, T/C (second compound 3.16 µM, first compound 0.316 µM) was 49% and the viability, T/C (second compound 3.16 µM, first compound 1 µM) was 48.6%. For the same compound, the viability, T/C (second compound 3.16 µM, first compound 3.16 µM) was 41.5%, the viability, T/C (second compound 3.16 µM, first compound 10 µM) was 0.16% and the viability, T/C (second compound 10 µM, first compound 0.0316 µM) was 42.7%. The viability, T/C (second compound 10 µM, first compound 0.1 µM) was 47.3%, the viability, T/C (second compound 10 µM, first compound 0.316 µM) was 43.9% and the viability, T/C (second compound 10 µM, first compound 1 µM) was 52.2%. For the same compound, the viability, T/C (second compound 10 µM, first compound 3.16 µM) was 28.6% and the viability, T/C (second compound 10 µM, first compound 10 µM) was 0.24%.
